In ChEMBL document CHEMBL4393667, “Discovery of [1,2,4]Triazolo[4,3- a]pyridines as Potent Inhibitors Targeting the Programmed Cell Death-1/Programmed Cell Death-Ligand 1 Interaction” (J Med Chem, 2019) one finds inhibition and IC50 data, which are given here for 31 compounds.

Where only a bound is given, the exact number is not on record here.

T1 sequence (Q15116 whole entry): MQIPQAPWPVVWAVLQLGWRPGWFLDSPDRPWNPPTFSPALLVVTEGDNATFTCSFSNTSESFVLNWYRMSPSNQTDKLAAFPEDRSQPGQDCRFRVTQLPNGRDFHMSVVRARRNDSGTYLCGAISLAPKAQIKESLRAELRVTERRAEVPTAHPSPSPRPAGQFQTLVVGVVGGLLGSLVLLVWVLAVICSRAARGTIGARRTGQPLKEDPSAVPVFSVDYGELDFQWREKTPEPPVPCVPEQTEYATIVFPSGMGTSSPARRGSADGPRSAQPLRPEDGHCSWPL
T1 sequence (Q9NZQ7 whole entry): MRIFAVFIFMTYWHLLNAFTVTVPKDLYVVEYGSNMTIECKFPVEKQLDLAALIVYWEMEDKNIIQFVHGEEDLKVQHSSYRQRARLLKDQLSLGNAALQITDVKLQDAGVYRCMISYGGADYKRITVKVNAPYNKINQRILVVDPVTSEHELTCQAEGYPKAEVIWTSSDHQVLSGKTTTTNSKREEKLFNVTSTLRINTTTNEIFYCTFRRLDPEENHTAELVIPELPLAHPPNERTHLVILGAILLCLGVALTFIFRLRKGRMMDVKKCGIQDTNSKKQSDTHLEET

One assay has as its target T1, Programmed cell death protein 1/Programmed cell death 1 ligand 1 (Homo sapiens, UniProt Q15116+Q9NZQ7). In words: Inhibition of human PD1/PDL1 protein-protein interaction in human PBMC-derived CD3-positive T cells co-cultured with human Hep3B cells expressing PDL1/OS-8 assessed as increase in IFNgamma secretion measured after 3 days.
On to `Cc1c(NC(=O)c2cc(CNCCO)cn3cnnc23)cccc1-c1ccc2c(c1)OCCO2`, for which the inhibition entry was “Dose-dependent effect”.

For another assay, the target named is T1, Programmed cell death protein 1/Programmed cell death 1 ligand 1. In words: Inhibition of human PD1/PDL1 protein-protein interaction after 15 mins by HTRF assay. The class given is protein-complex assay.
`N#Cc1c(NC(=O)c2cc(CNCCO)cn3cnnc23)cccc1-c1ccc2c(c1)OCCO2` yielded an IC50 of 275 nM. For the compound `Cc1c(NC(=O)c2cc(CN[C@H]3CC[C@H](O)CC3)cn3cnnc23)cccc1-c1ccccc1`, the IC50 is 968 nM. Compared with the last compound, the IC50 is about 3.5-fold higher. `Cc1c(NC(=O)c2cc(CN3CCN(C)CC3)cn3cnnc23)cccc1-c1ccccc1`: the midpoint of inhibition, the IC50, lay at 1350 nM. As for `Cc1c(NC(=O)c2ccc(CNCCO)n3cnnc23)cccc1-c1ccccc1`, the IC50 was over 10000 nM. On the same count and under the same terms, as for `Cc1c(NC(=O)c2cc(CNCCO)cn3c(C)nnc23)cccc1-c1ccccc1`, the figure is over 10000 nM; as for `Cc1c(NC(=O)c2cc(CN(C)CC(O)CO)cn3cnnc23)cccc1-c1ccccc1` (stereo unspecified), 375 nM.

In turn, `Cc1c(NC(=O)c2cc(CN(C)CCO)cn3ccnc23)cccc1-c1ccccc1` returned an IC50 of over 10000 nM. On the same count and under the same terms, as for `Cc1c(NC(=O)c2cc(CNCCO)cn3cnnc23)cccc1-c1ccccc1`, the figure is 733 nM; as for `Cc1c(NC(=O)c2cc(CN(C)CCO)cn3cnnc23)cccc1-c1ccccc1`, 755 nM. As for `Cc1c(NC(=O)c2cc(CNCCO)cn3ccnc23)cccc1-c1ccccc1`, the IC50 was over 10000 nM. Compound `CS(=O)(=O)NCCNCc1cc(C(=O)Nc2cccc(-c3ccc4c(c3)OCCO4)c2C#N)c2nncn2c1` came in with an IC50 of 983 nM. Still for that read-out and setting: as for `Cc1c(NC(=O)c2cc(CNCC(N)=O)cn3cnnc23)cccc1-c1ccccc1`, the figure is 2940 nM; as for `CC(=O)NCCNCc1ccc(C(=O)Nc2cccc(-c3ccccc3)c2C)c2nncn12`, over 10000 nM. The same measure, in the same setting: as for `CC(=O)NCCNCc1cc(C(=O)Nc2cccc(-c3ccccc3)c2C)c2nccn2c1`, the figure is over 10000 nM; as for `Cc1c(NC(=O)c2ccc(CN(C)CCO)n3cnnc23)cccc1-c1ccccc1`, over 10000 nM. Compound `CC(=O)NCCNCc1cc(C(=O)Nc2cccc(-c3ccccc3)c2C)c2nncn2c1` had an IC50 of 1490 nM. The same measure, in the same setting: as for `COC(=O)[C@@H]1CCCCN1Cc1cc(C(=O)Nc2cccc(-c3ccccc3)c2C)c2nncn2c1`, the figure is over 10000 nM. As for `Cc1c(NC(=O)c2cc(CNCCS(N)(=O)=O)cn3cnnc23)cccc1-c1ccc2c(c1)OCCO2`, the IC50 was 3690 nM.

`CC(=O)NCCNCc1cc(C(=O)Nc2cccc(-c3ccc4c(c3)OCCO4)c2C)c2nncn2c1`: the IC50 was found to be 566 nM. The same measure, in the same setting: as for `Cc1c(NC(=O)c2cc(CN(C)CC(O)CO)cn3cnnc23)cccc1-c1ccc2c(c1)OCCO2` (stereo unspecified), the figure is 474 nM; as for `Cc1c(NC(=O)c2cc(CN3CCN(C)CC3)cn3c(C)nnc23)cccc1-c1ccccc1`, over 10000 nM. Still for that read-out and setting: as for `Cc1c(NC(=O)c2cc(CN(C)CCO)cn3cnnc23)cccc1-c1ccc2c(c1)OCCO2`, the figure is 238 nM; as for `Cc1c(NC(=O)c2cc(CN3CCCC[C@H]3C(=O)O)cn3cnnc23)cccc1-c1ccccc1`, 5130 nM. In the case of `COC(=O)CNCc1cc(C(=O)Nc2cccc(-c3ccccc3)c2C)c2nncn2c1`, the IC50 was over 10000 nM. Regarding `COC(=O)[C@@H](CO)NCc1cc(C(=O)Nc2cccc(-c3ccccc3)c2C)c2nncn2c1`, the IC50 is over 10000 nM.

`Cc1c(NC(=O)c2cc(CNCCNS(C)(=O)=O)cn3cnnc23)cccc1-c1ccc2c(c1)OCCO2` had an IC50 of 988 nM. This lies in the sub-micromolar range. The same measure, in the same setting: as for `CC(=O)NCCNCc1cc(C(=O)Nc2cccc(-c3ccc4c(c3)OCCO4)c2C#N)c2nncn2c1`, the figure is 367 nM; as for `Cc1c(NC(=O)c2cc(CNCCS(N)(=O)=O)cn3cnnc23)cccc1-c1ccccc1`, 834 nM.

As to `CN(Cc1cc(C(=O)Nc2cccc(-c3ccc4c(c3)OCCO4)c2C#N)c2nncn2c1)CC(O)CO` (stereo unspecified), the concentration for half-maximal inhibition (IC50) turned out to be 486 nM. Compared with the last compound, the IC50 is about 1.7-fold lower. On the same count and under the same terms, under `Cc1c(NC(=O)c2cc(CN[C@H](CO)C(=O)O)cn3cnnc23)cccc1-c1ccccc1` stands 5570 nM.
